Assay results as given in US10793588B2, “Crystal form of sodium-glucose cotransporter 2 inhibitor” (HAINAN XUANZHU PHARMA CO., LTD., priority 2016, dated 2020).

Experiment: Stability test of crystalline Form I and free compound (properties, relevant substances by HPLC, XRD)
Type: physicochemical
Protocol: The crystalline Form I of the co-crystal of the compound of Formula (1) with L-proline, which was prepared according to the methods in the examples; free compound of Formula (1).
The test samples were placed under conditions of 60° C., 40° C., RH 90%±5%, RH 75%±5%, 4500lx±500lx or UV-Vis for 10 days, […], and the samples were tested for relevant substances and XRD pattern; and the results were compared with those of a sample on the 0th day.
Determination of the relevant substances: the determination was carried out in accordance with High Performance Liquid Chromatography in Appendix V D in Pharmacopoeia of the People's Republic of China (2010) (Volume II).
XRD measurement: the measurement was carried out in accordance with X-Ray Powder Diffraction in Appendix IX F in Pharmacopoeia of the People's Republic of China (2010) (Volume II).

[1] = 0th day (baseline, listed under 60° C.)
[2] = UV-Vis, total illumination ≥1.2 × 10^6 Lux·h, near ultraviolet energy ≥200 w·h/m^2
[3] = conditions that meet the illumination requirement (UV-Vis)

## O=C(O)[C@@H]1CCCN1.O=C(O)[C@@H]1CCCN1.OC[C@H]1O[C@@H](c2ccc(Cl)c(Cc3ccc(O[C@H]4C[C@@H]5C[C@@H]5C4)cc3)c2)[C@H](O)[C@@H](O)[C@@H]1O [crystalline Form I]
[1]
  Relevant substances (%): 0.60%
40° C., 5th day
  Relevant substances (%): 0.67%
40° C., 10th day
  Relevant substances (%): 0.65%
60° C., 5th day
  Relevant substances (%): 0.68%
60° C., 10th day
  Relevant substances (%): 0.62%
4500 lx ± 500 lx, 5th day
  Relevant substances (%): 0.66%
4500 lx ± 500 lx, 10th day
  Relevant substances (%): 0.71%
RH75% ± 5%, 5th day
  Relevant substances (%): 0.66%
RH75% ± 5%, 10th day
  Relevant substances (%): 0.64%
RH90% ± 5%, 5th day
  Relevant substances (%): 0.65%
RH90% ± 5%, 10th day
  Relevant substances (%): 0.63%
Overall conclusion of the stability test
  Stability compared with the free base of the compound: better stability
temperature, humidity or light conditions for 10 days
  Change of property, relevant substances and XRD pattern: did not change significantly

## OC[C@H]1O[C@@H](c2ccc(Cl)c(Cc3ccc(O[C@H]4C[C@@H]5C[C@@H]5C4)cc3)c2)[C@H](O)[C@@H](O)[C@@H]1O [free compound of Formula (1), (2S,3R,4R,5S,6R)-2-(3-(4-(((1R,3s,5S)-bicyclo[3.1.0]hexan-3-yl)oxy)benzyl)-4-chlorophenyl)-6-(hydroxymethyl)tetrahydro-2H-pyran-3,4,5-triol]
[1]
  Relevant substances (%): 1.35%
  XRD: Amorphism
40° C., 10th day
  Relevant substances (%): 1.44%
  XRD: Amorphism
60° C., 10th day
  Relevant substances (%): 1.43%
  XRD: Amorphism
RH75% ± 5%, 6th day
  XRD: Amorphism
RH90% ± 5% / RH75% ± 5%, 6th day
  Hygroscopicity under humidity conditions: significant hygroscopic deliquescence
RH90% ± 5%, 6th day
  XRD: Amorphism
[2]
  Properties: Tawny powder
  Relevant substances (%): 9.91%
  XRD: Amorphism
[3]
  Change of property of the sample: changed from an almost white powder to a tawny powder
  Increase of relevant substances relative to 0th day: 8.56%
Temperature conditions (60° C., 40° C.) for 10 days
  Change of amount of relevant substances: increased
